Experimental data published in patent publication US20230303599A1, “PRODRUGS OF PHOSPHONAMIDE NUCLEOTIDE ANALOGUES AND THEIR PHARMACEUTICAL USE” (priority 2020, published 2023).
Converted amounts (≈) assume the structure as drawn.

What was measured:
[1] = Cytotoxicity assay in MT-4 cells; format: cell-based; conditions: human, uninfected MT-4 cells, average of at least two independent experiments, read-out: MT4 CC50
Description: Compounds were tested in a high-throughput 384-well assay format for their ability to inhibit the replication of HIV-1 (IIIB) in MT-4 cells. Compounds were serially diluted (1:3) in DMSO on 384-well polypropylene plates and further diluted 200-fold into complete RPMI media (10% FBS, 1% P/S) using the Biotek Micro Flow and Labcyte ECHO acoustic dispenser. Each plate contained up to 8 test compounds, with negative (no drug) and positive (5 μM AZT) controls. MT-4 cells were pre-treated with 10 μL of either RPMI (mock-infected) or a fresh 1:250 dilution of HIV-1 IIIB concentrated virus stock. Infected and uninfected MT-4 cells were further diluted in complete RPMI media and added to each plate using a Micro Flow dispenser. After 5 days incubation in a humidified and temperature-controlled incubator (37° C.), Cell Titer Glo (Promega) was added to the assay plates and chemiluminescence read using an Envision plate-reader. EC50 values were defined as the compound concentration that causes a 50% decrease in luminescence signal and were calculated using a sigmoidal dose-response model to generate curve fits and are shown in Table 1.
Example 105: Cytotoxicity Assay in MT-4 Cells
Assays were performed as described in Example 104 except uninfected MT-4 cells were added to each well containing test compound. In addition, 10 μM puromycin was added to the last column of each assay plate to assess a base level of cytotoxicity.

[2] = Cytotoxicity assay in primary human hepatocytes (PHHs); format: cell-based; conditions: HBV-infected primary human hepatocytes, HBV-infected PHH, Cell Titer Glo, average of at least two independent experiments
Description: Example 107: Cytotoxicity Assay in Primary Human Hepatocytes (PHHs)
The HBV-infected primary human hepatocytes are seeded (20K cells/well in 80 uL of Media) in 384well collagen coated plates pre-spotted with compounds. After 5 days, 40 ul of cell supernatant is removed to quantify HBV DNA levels as described in Example 106. Then, 40 ul Cell Titer Glo Reagent (Promega Catalog Number: G7572) is added to the remaining cells and luminescence is measured on the EnVision microplate reader.

[3] = Kinetic solubility analysis; format: physicochemical; conditions: 1× PBS, 24.2 °C, aqueous buffer, kinetic from dmso stock; pH 7.4 PBS, 1% DMSO, 24-hour incubation at ambient temperature
Description: Example 108: Kinetic Solubility Analysis
Buffer Preparation: 0.1 N HCl: Hydrochloric acid, 0.1 N standardized solution (MP Biomedicals part number 199569). 1×PBS, pH 7.4: Phosphate Buffered Saline (PBS) solution 10× (Fisher Bioreagent part number BP399-500) 50 mL was added to approximately 450 mL HPLC grade H2O. The volume of the solution was then adjusted to 500 mL for a total dilution factor of 1:10 and a final PBS concentration of 1×.
The final DMSO concentration was 1.0% (v/v) and maximum theoretical compound concentration is 100 μM (for compound stock concentration of 10 mM). The filter plate was sealed. Following 24-hour incubation at ambient temperature (24.2-27.5° C.), the samples were vacuum filtered and the filtrates were collected in a 96 well polypropylene plate for analysis. The collection plate was sealed for analysis. Filtrates were injected into the Antek 8060 chemiluminescent nitrogen detector for quantification. The results are reported in μM.
The filtrates were quantified with respect to this calibration curve. Each calculated solubility value was corrected for background nitrogen present in the DMSO and in the medium used to prepare the sample. All reported values for compounds containing adjacent nitrogen atoms in a ring structure were increased by approximately 25%.

SMILES | CC50 at 5 days [1] [µM] | CC50 at 5 days [2] [µM] | solubility kinetic at 24 h [3] [mg/mL]
C[C@H](Cn1cnc2c(N)ncnc21)OCP(=O)(NC(C)(C)C(=O)OCc1ccccc1)NC(C)(C)C(=O)OCc1ccccc1 [Example 3, Dibenzyl 2,2′-(((((1-(6-amino-9H-purin-9-yl)propan-2-yl)oxy)methyl)phosphoryl)bis(azanediyl))(R)-bis(2-methylpropanoate)] | 4.46 | > 0.1 | 0.05 (≈ 78.4 µM)
CCCCCOC(=O)C(C)(C)NP(=O)(CO[C@H](C)Cn1cnc2c(N)ncnc21)NC(C)(C)C(=O)OCCCCC [Example 4, Dipentyl 2,2′-(((((1-(6-amino-9H-purin-9-yl)propan-2-yl)oxy)methyl)phosphoryl)bis(azanediyl))(R)-bis(2-methylpropanoate)] | 8.42 | > 0.1 | 0.053 (≈ 88.7 µM)
CCC[C@H]1CC[C@H](OC(=O)C(C)(C)NP(=O)(CO[C@H](C)Cn2cnc3c(N)ncnc32)NC(C)(C)C(=O)O[C@H]2CC[C@H](CCC)CC2)CC1 [Example 27] |  | > 0.1 | 0.001 (≈ 1.42 µM)
CCCCCCCCCCCC(=O)Nc1ncnc2c1ncn2C[C@@H](C)OCP(=O)(NC(C)(C)C(=O)OCCCCCC)NC(C)(C)C(=O)OCCCCCC [Example 30, Dihexyl 2,2′-(((((1-(6-dodecanamido-9H-purin-9-yl)propan-2-yl)oxy)methyl)phosphoryl)bis(azanediyl))(R)-bis(2-methylpropanoate)] |  | > 0.1 | < 0.001
CCCCCCOC(=O)C(C)(C)NP(=O)(CO[C@H](C)Cn1cnc2c(NC(=O)OCCC)ncnc21)NC(C)(C)C(=O)OCCCCCC [Example 31, Dihexyl 2,2′-(((((1-(6-((propoxycarbonyl)amino)-9H-purin-9-yl)propan-2-yl)oxy)methyl)phosphoryl)bis(azanediyl))(R)-bis(2-methylpropanoate)] | 9.01 | > 0.1 | 0.012 (≈ 16.9 µM)
C[C@H](Cn1cnc2c(N)ncnc21)OCP(=O)(NC(C)(C)C(=O)OC1CCC2(CCCC2)CC1)NC(C)(C)C(=O)OC1CCC2(CCCC2)CC1 (stereo partly drawn) [Example 61, Di(spiro[4.5]decan-8-yl) 2,2′-(((((1-(6-amino-9H-purin-9-yl)propan-2-yl)oxy)methyl)phosphoryl)bis(azanediyl))(R)-bis(2-methylpropanoate)] | 6 | > 0.1 | < 0.001
C[C@H](Cn1cnc2c(N)ncnc21)OCP(=O)(NC(C)(C)C(=O)OCCC12CC(C1)C2)NC(C)(C)C(=O)OCCC12CC(C1)C2 [Example 62, Bis(2-(bicyclo[1.1.1]pentan-1-yl)ethyl) 2,2′-(((((1-(6-amino-9H-purin-9-yl)propan-2-yl)oxy)methyl)phosphoryl)bis(azanediyl))(R)-bis(2-methylpropanoate)] | 3.19 | > 0.1 | < 0.001
CCCCCCOC(=O)C(CC)(CC)NP(=O)(CO[C@H](C)Cn1cnc2c(N)ncnc21)NC(CC)(CC)C(=O)OCCCCCC [Example 65, Dihexyl 2,2′-(((((1-(6-amino-9H-purin-9-yl)propan-2-yl)oxy)methyl)phosphoryl)bis(azanediyl))(R)-bis(2-ethylbutanoate)] | 6.71 | > 0.1 | 
CCCCCCCOC(=O)C(C)(C)NP(=O)(CO[C@H](C)Cn1cnc2c(N)ncnc21)NC(C)(C)C(=O)OCCCCCCC [Example 66, Diheptyl 2,2′-(((((1-(6-amino-9H-purin-9-yl)propan-2-yl)oxy)methyl)phosphoryl)bis(azanediyl))(R)-bis(2-methylpropanoate)] | 4.77 | > 0.1 | 
CCCCCCOC(=O)C(C)(C)NP(=O)(CO[C@H](C)Cn1cnc2c(N)ncnc21)NC(C)(C)C(=O)OCC12CC(C1)C2 (stereo partly drawn) [Example 77, Bicyclo[1.1.1]pentan-1-ylmethyl 2-((((((R)-1-(6-amino-9H-purin-9-yl)propan-2-yl)oxy)methyl)((1-(hexyloxy)-2-methyl-1-oxopropan-2-yl)amino)phosphoryl)amino)-2-methylpropanoate] | > 50 | > 0.1 | 0.057 (≈ 91.7 µM)
C[C@H](Cn1cnc2c(N)ncnc21)OCP(=O)(NC(C)(C)C(=O)OCC12CCC(CC1)C2)NC(C)(C)C(=O)OCC12CCC(CC1)C2 [Example 87, Bis(bicyclo[2.2.1]heptan-1-ylmethyl) 2,2′-(((((1-(6-amino-9H-purin-9-yl)propan-2-yl)oxy)methyl)phosphoryl)bis(azanediyl))(R)-bis(2-methylpropanoate)] | 5.05 | > 0.1 | < 0.001
CCCCCCOC(=O)C(C)(C)NP(=O)(CO[C@H](C)Cn1cnc2c(NC(=O)OCCOC(=O)c3ccccc3)ncnc21)NC(C)(C)C(=O)OCCCCCC [Example 94, Dihexyl 2,2′-(((((1-(6-(((2-(benzoyloxy)ethoxy)carbonyl)amino)-9H-purin-9-yl)propan-2-yl)oxy)methyl)phosphoryl)bis(azanediyl))(R)-bis(2-methylpropanoate)] | 8.22 | > 0.1 | 0.002 (≈ 2.45 µM)
CCCCCCOC(=O)C(C)(C)NP(=O)(CO[C@H](C)Cn1cnc2c(NC(=O)OCC(C)(C)C(=O)OCc3oc(=O)oc3C)ncnc21)NC(C)(C)C(=O)OCCCCCC [Example 98, Dihexyl 2,2′-(((((1-(6-(((2,2-dimethyl-3-((5-methyl-2-oxo-1,3-dioxol-4-yl)methoxy)-3-oxopropoxy)carbonyl)amino)-9H-purin-9-yl)propan-2-yl)oxy)methyl)phosphoryl)bis(azanediyl))(R)-bis(2-methylpropanoate)] | 24.5 |  | 0.007 (≈ 7.94 µM)
CCCCCCOC(=O)C(C)(C)NP(=O)(CO[C@H](C)Cn1cnc2c(NC(=O)CCCC(=O)OCc3oc(=O)oc3C)ncnc21)NC(C)(C)C(=O)OCCCCCC [Example 99, (5-Methyl-2-oxo-1,3-dioxol-4-yl)methyl 5-[[9-[(2R)-2-[bis[(2-hexoxy-1,1-dimethyl-2-oxo-ethyl)amino]phosphorylmethoxy]propyl]purin-6-yl]amino]-5-oxo-pentanoate] | 17.2 |  | 0.025 (≈ 29.3 µM)
CCCCCCOC(=O)C(C)(C)NP(=O)(CO[C@H](C)Cn1cnc2c(NC(=O)OC(C)(C)CC(=O)OCc3oc(=O)oc3C)ncnc21)NC(C)(C)C(=O)OCCCCCC [Example 101, Dihexyl 2,2′-(((((1-(6-((((2-methyl-4-((5-methyl-2-oxo-1,3-dioxol-4-yl)methoxy)-4-oxobutan-2-yl)oxy)carbonyl)amino)-9H-purin-9-yl)propan-2-yl)oxy)methyl)phosphoryl)bis(azanediyl))(R)-bis(2-methylpropanoate)] | 7.68 |  | 0.023 (≈ 26.1 µM)
